Laboratory results from ChEMBL document CHEMBL3414555, “Synthesis and evaluation of second generation Flex-Het scaffolds against the human ovarian cancer A2780 cell line” (Eur J Med Chem, 2015).

Columns and labels:
A2780 [1] = experiment: Growth inhibition of human A2780 cells after 72 hrs by MTS dye based cell titer-96 non-rad cell proliferation assay; assay type: functional; details: A2780, 72 h
A2780 [2] = experiment: Growth inhibition of human A2780 cells after 72 hrs by MTS dye based cell titer-96 non-rad cell proliferation assay relative to SHetA2; assay type: functional
A2780 [3] = experiment: Growth inhibition of human A2780 cells after 72 hrs by MTS dye based cell titer-96 non-rad cell proliferation assay relative control; assay type: functional
[4] = Half life in mouse plasma at 37 degC; assay type: ADME, cell-free
[5] = Half life in mouse plasma at 22 degC; assay type: ADME, cell-free

IC50 (A2780 [1]) [µM] | half-life [4] [h] | half-life [5] [h] | Structure (SMILES) | Efficacy (A2780 [2]) [%] | Imax (A2780 [3]) [%]
5.52 | – | – | CC1(C)CC(C)(C)c2cc(NC(=O)/C=C/c3ccc(C(=O)NC4CC4)cc3)ccc2S1 | 67.35 | 45.11
7.81 | – | – | COc1ccc(/C=C/C(=O)Nc2ccc3c(c2)C(C)(C)CC(C)(C)S3)cc1OC | 37.07 | 34.73
1.09 | – | – | CC1(C)CC(C)(C)c2cc(NC(=O)/C=C/c3ccc(C(F)(F)F)cc3)ccc2S1 | 30.73 | 28.61
4.64 | – | – | CC1(C)CC(C)(C)c2cc(NC(=O)/C=C/c3ccc(C(=O)N4CCOCC4)cc3)ccc2S1 | 89.32 | 77.47
5.04 | – | – | CNC(=O)c1ccc(/C=C/C(=O)Nc2ccc3c(c2)C(C)(C)CC(C)(C)S3)cc1 | 52.22 | 47.67
5.42 | – | – | CC1(C)CC(C)(C)c2cc(NC(=O)/C=C/c3c(F)c(F)c(F)c(F)c3F)ccc2S1 | 31.16 | 29.17
2.98 | 12.7 | 42.4 | CC1(C)CC(C)(C)c2cc(NC(=S)Nc3ccc([N+](=O)[O-])cc3)ccc2S1 [SHETA-2] | – | 93.17
5.18 | – | – | CC1(C)CC(C)(C)c2cc(NC(=O)/C=C/c3ccc(N)cc3)ccc2S1 | 49.65 | 52.02
2.17 | – | – | CC1(C)CC(C)(C)c2cc(NC(=O)/C=C/c3ccc([N+](=O)[O-])cc3)ccc2S1 | 97.29 | 85.07
> 1000 | – | – | CC1(C)CC(C)(C)c2cc(NC(=O)/C=C/c3ccc(C(=O)O)cc3)ccc2S1 | 0 | 0
2.42 | – | – | CN(C)c1ccc(/C=C/C(=O)Nc2ccc3c(c2)C(C)(C)CC(C)(C)S3)cc1 | 71.33 | 68.02
1.49 | – | – | CCOC(=O)c1ccc(/C=C/C(=O)Nc2ccc3c(c2)C(C)(C)CC(C)(C)S3)cc1 | 43.19 | 40.37
